Source: US7314864B1, “Humanin, a polypeptide suppressing neuronal death” (Keio University, priority 1999, dated 2008)

What was measured:
[1] = test system: primary cultured cortical neurons treated with Aβ1-43; assay: Aβ1-43-induced cell damage of primary cultured cortical neurons, LDH release; format: cell-based, mouse; details: 100 ng/ml
Description: Primary culture of mouse cortical neurons was performed in poly-D-lysine-coated 24-well plates (Sumitomo Bakelite) in the absence of serum and in the presence of N2 supplement, as described in literature (Ecksioglu, Y. Z. et al. (1994) Brain Res. 644, 282-90). The purity of neurons prepared according to the method was >98%. The prepared neurons (1.25×10^5/well, 250 μl media/well) were preincubated in the absence or presence of 10 nM or 10 μM sHN polypeptides for 16 hours; and were treated with 25 μM Aβ1-43 in the absence or presence of sHN polypeptides at the same concentrations for 24 to 72 hours. […]
Trypan blue exclusion assay was performed as follows. […] Within 3 minutes of the trypan blue solution addition, stained cells were counted. Cell mortality was determined [100-cell survival rate (%)] based on the stained cell count. […] Specifically, 6 μM Calcein-AM (3′, 6′-Di-(O-acetyl)-2′-7′-bis[N,N-bis(carboxymethyl)aminomethyl]fluorescein, tetraacetoxymethyl ester; Dojindo, Cat. #349-07201) was added to the neurons; and 30 minutes or longer after Calcein-AM treatment, fluorescence (ex=490 nm, em=515 nm) was observed by fluorescence microscopy, and measured by a spectrometer. Specific fluorescence was calculated by subtracting basal fluorescence from total fluorescence. […]

[2] = test system: primary cultured cortical neurons treated with Aβ1-43; assay: Aβ1-43-induced cell death of primary cultured cortical neurons, trypan blue exclusion assay; format: cell-based; details: 100 ng/ml

NGF: NGF, tested at 100 ng/ml against Aβ-induced neuronal death [reference compound]
effect on increased LDH release induced by Aβ [1]: did not show effects
effect on cell death of neurons induced by Aβ [2]: did not show effects
